{
  "source": "paper PMC12713470",
  "about": "“Design and Synthesis of Novel Chalcone Derivatives Targeting Bladder and Liver Cancer: Cytotoxicity Evaluation and Preliminary Mechanistic Studies” (ACS Omega, 2025)",
  "key": {"HepG2 cells [1]": {"tested_on": "HepG2 cells", "experiment": "Clonogenic survival, HepG2", "assay_type": "cell-based, human", "conditions": "4.62 and 9.25 μM, 48 h treatment, 10 days colony formation", "method": "(§1) The cells were cultured in DMEM (Sigma-Aldrich, St. Louis, USA) and supplemented with 10% fetal bovine serum (Cultilab Ltda., Campinas, Brazil) and antibiotics (amphotericin). They were incubated at 37 °C in a humidified atmosphere with 5% CO2. Control cell groups, which were not exposed to the compound, were included in the experiments and were conducted in triplicate. The chalcone was dissolved in dimethyl sulfoxide (DMSO) for the assays.\nThe cells were trypsinized and plated into 24-well plates at a density of 1.0 × 10^5 cells/mL. Afterward, they were treated with the chalcone at concentrations of 2.15, 4.62, 9.25, and 18.50 μM for 48 h. Following treatment, the cells were washed with Hanks’ solution and trypsinized again, and approximately 1000 cells were reseeded into 12-well plates. These cells were incubated for 10 days in a CO2 incubator to allow colony formation. After the incubation period, the culture medium was removed, and the cells were washed with Hanks’ solution. Fixation was performed using 4% formaldehyde for 20 min, followed by […] in 100% methanol for 20 min. The cells were then stained with a 0.5% crystal violet solution prepared in 25% methanol. […] Absorbance was measured at 570 nm using a spectrophotometer, and the results were expressed as the percentage of colonies formed relative to the untreated control group."}, "T24 cells [2]": {"tested_on": "T24 cells", "experiment": "Morphology assay, T24", "assay_type": "cell-based, human", "conditions": "2.15-18.50 μM, 48 h", "method": "For the morphology assay, 2.0 × 10^5 cells were cultured in 12-well plates for 24 h to allow adherence. After this period, the cells were treated with the chalcone at concentrations of 2.15, 4.62, 9.25, and 18.50 μM for 48 h. After treatment, the cells were examined and photographed under an inverted microscope at 200× magnification."}, "HepG2 cells [3]": {"tested_on": "HepG2 cells", "experiment": "Cell migration (wound), HepG2", "assay_type": "cell-based, human", "conditions": "4.62 and 9.25 μM, 48 h", "method": "as §1\n(§2) Cells were seeded in 24-well plates at a density of 1.0 × 10^5 cells per well and incubated for 24 h to allow attachment. After this incubation, a sterile 200 μL pipet tip was used to scrape the cell monolayer, creating a wound. The initial wound area was photographed using an inverted microscope equipped with a camera. Following this, the cells were washed with Hanks’ solution and treated with the glycosylated chalcone at concentrations of 2.15, 4.62, 9.25, and 18.50 μM for 48 h. At the end of the treatment period, the cells were photographed again, and migration into the wound area was assessed. The percentage of cell migration was quantified using ImageJ and GraphPad Prism software."}, "[4]": {"tested_on": "MRC-5: human lung fibroblast cells", "experiment": "MTT cytotoxicity assay on MRC-5 cells", "assay_type": "cell-based", "conditions": "MRC5, 24 h incubation, n = 3, ± standard deviation", "method": "Cytotoxicity was determined using the MTT colorimetric assay, and half-maximal inhibitory concentrations (IC50, μM) were obtained for all cell lines (Table ). The selectivity index (SI) was calculated as the ratio of IC50 MRC-5/IC50 cancer cell line. Doxorubicin was employed as a positive control due to its broad-spectrum clinical use, either alone or in combination, against hepatocellular, ovarian, cervical, and bladder cancers. −\nIn vitro biological assays were performed by using five human cell lines for cytotoxicity evaluation. HepG2 cells (ATCC HB-8065), derived from a human hepatocellular carcinoma of the liver (person), were cultured in Dulbecco’s modified Eagle medium (DMEM) supplemented with 5% fetal bovine serum (FBS), penicillin/streptomycin (100 IU/mL), and amphotericin B (5 μg/mL), in a humidified incubator with 5% CO2 at 37 °C. These cells were plated at a concentration of 2.0 × 10^4 cells/well in 96-well microplates. MRC-5 cells (ATCC CCL-171), derived from human lung fibroblasts of a […] fetus, were cultured under the same conditions and plated at 1.0 × 10^4 cells/well. T24 cells (ATCC HTB-4), established from a transitional cell carcinoma of the bladder (person), were also cultured under identical conditions and plated at a density of 1.0 × 10^4 cells/well. TOV-21G cells (ATCC CRL-11730), derived from a primary malignant ovarian adenocarcinoma (person), were maintained in DMEM with the same supplementation and environmental conditions and plated at 5.0 × 10^4 cells/well. […]\nHeLa, HepG2, MRC-5, T24, and TOV-21G cells were suspended in a culture medium supplemented with 5% fetal bovine serum (FBS) and seeded into 96-well microplates. The plates were incubated under a humidified atmosphere containing 5% CO2 at 37 °C for 24 h, allowing for adherence and monolayer formation. , Eight serial dilutions of the test samples, previously solubilized in dimethyl sulfoxide (DMSO), were prepared in DMEM supplemented with 1% FBS, covering a concentration range from […], and the results were converted to […]. The volume of DMSO in each well was limited to a final concentration not exceeding 2%. Following monolayer formation, the culture medium was aspirated and replaced with 100 μL of the diluted test samples and 100 μL of DMEM containing 1% FBS. The plates were then incubated under the same atmospheric and temperature conditions.\nTwo hours prior to end point reading, 20 μL of MTT [3-(4,5-dimethylthiazol-2-yl)-2,5-diphenyltetrazolium bromide] solution (1.0 mg/mL in sterile phosphate-buffered saline, Sigma-Aldrich) was added to each well. The incubation period following sample addition varied according to the cell line: 24 h for MRC-5, 48 h for T24, and 72 h for HeLa, HepG2, and TOV-21G. After the appropriate incubation, absorbance was measured by using a VICTOR X3 microplate reader (PerkinElmer), and data were processed with WorkOut 2.5 software at a wavelength of 490 nm. Formazan formation, resulting from the MTT reduction by metabolically active cells, was used as an indirect measure of cell viability. The percentage of cytotoxicity was calculated using the equation % cytotoxicity = [(A – B)/A] × 100, where A is the optical density (OD4 9 0) of untreated control cells and B is the OD4 9 0 of treated cells.\nCytotoxicity was expressed as the 50% cytotoxic concentration (CC5 0), representing the concentration of sample required to reduce cell viability by 50% relative to that of the untreated control."}, "T24 cells [5]": {"tested_on": "T24 cells", "experiment": "Cell migration (wound), T24", "assay_type": "cell-based, human", "conditions": "highest concentration tested, 48 h", "method": "as §1, §2"}},
  "data": [
    {"smiles": "CCCc1cc(/C=C/C(=O)c2ccc(C)cc2)c(OC)c(OC)c1", "note": "[compound 3, (E)-3-(2,3-Dimethoxy-5-propylphenyl)-1-(p-tolyl)-prop-2-en-1-one]", "values": [
      {"measurement": "colony formation, HepG2", "setting": "HepG2 cells [1]", "value": "reduction in colony formation"},
      {"measurement": "morphology, T24", "setting": "T24 cells [2]", "value": "reduction in cell density was observed"},
      {"measurement": "cell migration, HepG2", "setting": "HepG2 cells [3]", "value": "reduction of cell migration"},
      {"measurement": "IC50", "setting": "[4]", "value": "55.5 ± 1.2", "unit": "µM"},
      {"measurement": "cell migration, T24", "setting": "T24 cells [5]", "value": "significant decrease was observed"}
    ]}
  ]
}
